Measured values reported in paper PMC11726677, “Eradication of Therapy-Resistant Cancer Stem Cells by Novel Telmisartan Derivatives” (Journal of Medicinal Chemistry, 2024).
Several values for one entry are separate records, joined by “and”; a condition that tells them apart may be missing. Equal values may be shown once. Blank lines part the entries; values can stand above or below the molecule they belong to.

Legend:
[1] = biological target: ABCB1 transporter in K562-R cells (Homo sapiens, UniProt P08183); assay: Side population (SP) analysis, DCV staining, flow cytometry; details: 10 μM
Chain of ABCB1 transporter in K562-R cells (P08183 whole entry): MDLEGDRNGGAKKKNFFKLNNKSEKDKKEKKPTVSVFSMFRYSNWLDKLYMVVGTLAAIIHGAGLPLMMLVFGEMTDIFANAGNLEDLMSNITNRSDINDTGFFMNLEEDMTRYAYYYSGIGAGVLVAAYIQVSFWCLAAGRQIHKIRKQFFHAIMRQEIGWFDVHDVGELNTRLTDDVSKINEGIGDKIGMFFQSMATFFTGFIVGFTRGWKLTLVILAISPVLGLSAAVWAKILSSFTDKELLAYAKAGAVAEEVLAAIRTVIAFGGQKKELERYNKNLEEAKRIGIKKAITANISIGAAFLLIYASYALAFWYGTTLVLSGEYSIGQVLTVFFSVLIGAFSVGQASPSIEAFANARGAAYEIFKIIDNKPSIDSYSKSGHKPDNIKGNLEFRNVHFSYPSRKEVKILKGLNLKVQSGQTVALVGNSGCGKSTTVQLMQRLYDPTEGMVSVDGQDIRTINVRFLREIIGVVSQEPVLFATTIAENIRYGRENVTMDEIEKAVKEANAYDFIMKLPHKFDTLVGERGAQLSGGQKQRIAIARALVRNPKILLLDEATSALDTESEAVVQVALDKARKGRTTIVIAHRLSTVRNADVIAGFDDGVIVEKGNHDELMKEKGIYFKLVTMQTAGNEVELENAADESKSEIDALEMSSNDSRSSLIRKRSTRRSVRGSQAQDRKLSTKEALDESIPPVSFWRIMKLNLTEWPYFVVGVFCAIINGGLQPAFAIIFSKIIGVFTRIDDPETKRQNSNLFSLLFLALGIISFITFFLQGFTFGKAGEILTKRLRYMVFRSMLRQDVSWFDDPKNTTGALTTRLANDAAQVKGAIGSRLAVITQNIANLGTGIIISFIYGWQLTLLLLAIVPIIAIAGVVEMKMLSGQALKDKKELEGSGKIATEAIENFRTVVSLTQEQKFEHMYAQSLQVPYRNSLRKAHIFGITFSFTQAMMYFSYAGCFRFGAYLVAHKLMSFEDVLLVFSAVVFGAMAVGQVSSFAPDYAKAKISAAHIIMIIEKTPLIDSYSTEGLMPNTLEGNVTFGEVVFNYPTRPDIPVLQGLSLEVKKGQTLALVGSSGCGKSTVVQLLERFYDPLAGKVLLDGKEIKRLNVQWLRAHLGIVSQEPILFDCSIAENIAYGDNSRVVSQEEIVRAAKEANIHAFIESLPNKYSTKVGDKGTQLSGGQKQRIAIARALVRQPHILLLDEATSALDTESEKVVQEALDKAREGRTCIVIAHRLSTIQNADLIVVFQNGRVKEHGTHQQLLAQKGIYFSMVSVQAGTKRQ
Description: SP analyses were performed as previously described[45] on a LSRFortessa flow cytometer (BD Biosciences, Vienna, Austria). Briefly, 1 × 10^6 cells/mL were stained with 10 μM Vybrant DyeCycleTM Violet (DCV; Molecular Probes, Eugene, OR) in the presence or absence of the investigated compounds for 90 min at 37 °C. […] Subsequently, the cells were washed and immediately analyzed using flow cytometry. The FlowJo 9.6 software was used for data analyses (Tree Star Software, Ashland, CA).

[2] = test system: K562-R cells; assay: Chemosensitizing: metabolic activity of K562-R cells cotreated with imatinib (modified MTT assay); format: cell-based, human; details: 72 h; for EC50 / chemosensitizing effect, concentration-dependent analysis: K562-R, + imatinib 1 μM; for EC50: read-out: SC50 (drug concentration eliciting 50% of the maximum sensitizing effect); for chemosensitizing effect, concentration-dependent analysis: 0.5–8 μM (transporter inhibitors 10 to 0.5 μM)
Description: (§1) The potential reduction in cell viability was determined using the modified MTT assay.
conc. 10 to 0.5 μM) over 72 h (Figure 3D).
(§2) COS-7 (2 × 10^3 cells per well), IGROV-1 SP (2.5 × 10^3 cells per well), A2780 V SP (1.5 × 10^3 cells per well), PC3-DR (4 × 10^3 cells per well), and DU145-DR (3 × 10^3 cells per well) cells were seeded in 96-well plates in triplicates and after 24 h, the compounds were added at the respective concentrations. K562-R and K562 cells (2 × 10^4 cells per well), were treated with the compounds 2 h after seeding. […] A modified MTT colorimetric assay (EZ4U kit, Biomedica) was used to determine the metabolic activity of the tested cells, according to the manufacturer’s instructions. Absorbance was measured and the optical density of the respective FCS-containing medium and of the substrate was subtracted to exclude nonspecific staining. Metabolic activity in the absence of the compounds (CTR, DMSO) was set to 100% as reference.

[3] = test system: ABCB1; assay: Jess Simple Western immunoassay of ABCB1 expression in K562-R cells; format: cell-based, human; details: 4 μM, 72 h
Description: (§3) Protein extracts were prepared as previously described.[44] Protein expression was determined using the capillary-based Jess Simple Western detection system (ProteinSimple, BioTechne) according to the manufacturer’s instructions at default settings. […] Horseradish peroxidase (HRP)-conjugated secondary antirabbit antibody, which was included in the Jess Detection Module kit, was used. Data analysis was conducted using Compass for Simple Western 4.0 software (ProteinSimple, BioTechne).

[4] = test system: STAT5; assay: Jess Simple Western immunoassay of STAT5/pSTAT5 in K562-R cells; format: cell-based, human
Description: In the next step, the effects of the compounds (4 μM) on STAT5 in K562-R cells were examined.
as §3

[5] = test system: K562-R cells; assay: Metabolic activity of K562-R cells, compounds alone (modified MTT assay); format: cell-based, human; details: 72 h; for viability at 10 µM: Homo sapiens, K-562R, read-out: metabolic activity of K562-R cells, compound alone; for metabolic activity of K562-R cells, compound alone: 10 μM, without imatinib, vehicle control = 100%
Description: as §1
First, the compounds (10 μM) were applied alone to evaluate their effects per se.
as §2

[6] = test system: K562 cells; assay: Metabolic activity of TKI-sensitive K562 cells (MTT assay); format: cell-based, human; details: 10 μM, 72 h, alone
Description: Selectivity for therapy-resistant K562-R cells can be assessed by comparing the results with TKI-sensitive K562 cells.
as §2

[7] = test system: DU145-DR cells; assay: Chemosensitizing to docetaxel: metabolic activity of DU145-DR cells (MTT); format: cell-based, human; details: DTX 12.5 nM, 72 h, compared to solvent control
Description: (§4) The chemosensitizing efficacy was investigated in the ovarian and prostate cancer cell lines using the above-described metabolic activity assay. Paclitaxel (PTX) served as a reference (CTR) in A2780 V SP and IGROV-1 SP cells and docetaxel (DTX) in PC3-DR and D145-DR cells.
as §2

[8] = test system: PC3-DR cells; assay: Chemosensitizing to docetaxel: metabolic activity of PC3-DR cells (MTT); format: cell-based, human; details: DTX 12.5 nM, 72 h, compared to solvent control
Description: as §4, §2

[9] = test system: human CML K562-R xenograft; assay: Efficacy in human CML K562-R xenograft model; format: in vivo, female NOD/SCID mice; design: % T/C (treatment/control) / % TGI (tumor growth inhibition): concentration or dose not given beside the values; details: for % TGI (tumor growth inhibition): vs vehicle control
Description: The animals were checked daily for humane end points. Body weight was measured and recorded daily after dosing.
The % T/C value, defined as the ratio of the mean tumor volume for the treated versus control group, was calculated as % T/C = (Tn/Cn) × 100%; whereas Tn: denotes mean tumor volume of the treated group on day n, and Cn: denotes mean tumor volume of the control group on day n. The optimal value is the minimal % T/C ratio, which reflects the maximal tumor growth inhibition achieved.
TGI (Tumor growth inhibition) was calculated by the following formula [drawing 1] [drawing 2]
Whereas: Tn: denotes the mean tumor volume of the treated group on day n; T1: denotes the mean tumor volume of the treated group on day 1; Cn: denotes the mean tumor volume of the vehicle control group on day n; and C1: denotes the mean tumor volume of the vehicle control group at day 1.

[10] = Body weight / tolerability in the K562-R xenograft study; details: 7c 10 mg/kg, imatinib 50 mg/kg, PO QD × 30 days
[11] = test system: K562-R cells; assay: Metabolic activity of K562-R cells, compounds alone (modified MTT assay); format: cell-based, human; details: imatinib 1 μM, 72 h; compared to the 100% solvent control
[12] = test system: IGROV-1 SP cells; assay: Chemosensitizing to paclitaxel: metabolic activity of IGROV-1 SP cells (MTT); format: cell-based, human; details: PTX 10 nM, 72 h, compared to solvent control
Description: as §4, §2

[13] = test system: A2780 V SP cells; assay: Chemosensitizing to paclitaxel: metabolic activity of A2780 V SP cells (MTT); format: cell-based, human
Description: as §4, §2

[14] = test system: ABCB1; design: method as in Weiss et al. 38; details: ref Weiss et al. 38; cited from earlier work

effect on SP phenotype / ABCB1 activity [1]: had no significant impact on the SP
SMILES: CCCc1nc2ccccc2n1Cc1ccccc1C(=O)OC [1b, Methyl 2-((2-propyl-1H-benzo[d]imidazole-1-yl)methyl)benzoate]
metabolic activity of K562-R cells, combination with imatinib ([2]; compound 8 μM + imatinib 1 μM): 44–57% | metabolic activity of K562-R cells, combination with imatinib ([2]; compound 10 μM + imatinib 1 μM): 34–58% | ABCB1 protein expression [3]: none of the compounds abrogated the ABCB1 protein expression | phosphorylation of STAT5 ([4]; 4 μM + imatinib 1 μM, 6 h): hardly triggered any change in the expression of pSTAT5 | phosphorylation of STAT5 ([4]; 4 μM alone, 72 h): prevented the activation of STAT5 | viability at 10 µM [5]: < 70%

SMILES: CCCc1nc2ccccc2n1Cc1ccccc1C(N)=O [1c, 2-((2-Propyl-1H-benzo[d]imidazole-1-yl)methyl)benzamide]
metabolic activity of K562-R cells, combination with imatinib ([2]; compound 10 μM + imatinib 1 μM): could not be increased | viability at 10 µM [5]: 75 to 80%

effect on SP phenotype / ABCB1 activity [1]: had no significant impact on the SP
SMILES: CCCc1nc2ccccc2n1Cc1cccc(C(=O)OC)c1 [2b, Methyl 3-((2-propyl-1H-benzo[d]imidazole-1-yl)methyl)benzoate]
metabolic activity of K562-R cells, combination with imatinib ([2]; compound 8 μM + imatinib 1 μM): 44–57% | metabolic activity of K562-R cells, combination with imatinib ([2]; compound 10 μM + imatinib 1 μM): 34–58% | viability at 10 µM [5]: < 70%

SMILES: CCCc1nc2ccccc2n1Cc1cccc(C(N)=O)c1 [2c, 3-((2-Propyl-1H-benzo[d]imidazole-1-yl)methyl)benzamide]
metabolic activity of K562-R cells, combination with imatinib ([2]; compound 10 μM + imatinib 1 μM): could not be increased

effect on SP phenotype / ABCB1 activity [1]: had no significant impact on the SP
SMILES: CCCc1nc2ccccc2n1Cc1ccc(C(=O)OC)cc1 [3b, Methyl 4-((2-propyl-1H-benzo[d]imidazole-1-yl)methyl)benzoate]
metabolic activity of K562-R cells, combination with imatinib ([2]; compound 8 μM + imatinib 1 μM): 44–57% | metabolic activity of K562-R cells, combination with imatinib ([2]; compound 10 μM + imatinib 1 μM): 34–58%

SMILES: CCCc1nc2ccccc2n1Cc1ccc(C(N)=O)cc1 [3c, 4-((2-Propyl-1H-benzo[d]imidazole-1-yl)methyl)benzamide]
metabolic activity of K562-R cells, combination with imatinib ([2]; compound 10 μM + imatinib 1 μM): could not be increased

effect on SP phenotype / ABCB1 activity [1]: efficiently reduced the ABCB1 activity | relation of SP and NSP [1]: about 50%
SMILES: CCCc1nc2ccccc2n1Cc1ccc(-c2ccccc2C(=O)OC)cc1 [4b, Methyl 4′-((2-propyl-1H-benzo[d]imidazole-1-yl)methyl)-[1,1′-biphenyl]-2-carboxylate]
EC50 [2]: 1240 nM | metabolic activity of K562-R cells, combination with imatinib ([2]; compound 10 μM + imatinib 1 μM): 8–24% | ABCB1 protein expression [3]: none of the compounds abrogated the ABCB1 protein expression | phosphorylation of STAT5 ([4]; 4 μM + imatinib 1 μM, 6 h): hardly triggered any change in the expression of pSTAT5 | phosphorylation of STAT5 ([4]; 4 μM alone, 72 h): prevented the activation of STAT5 | viability at 10 µM [5]: < 70% | metabolic activity of K562 cells [6]: ≥ 65%

SMILES: CCCc1nc2ccccc2n1Cc1ccc(-c2cccc(C(=O)OC)c2)cc1 [5b, Methyl 4′-((2-propyl-1H-benzo[d]imidazole-1-yl)methyl)-[1,1′-biphenyl]-3-carboxylate]
metabolic activity of K562-R cells, combination with imatinib ([2]; compound 10 μM + imatinib 1 μM): 34–58% | viability at 10 µM [5]: < 70% | metabolic activity of K562 cells [6]: ≥ 65%

effect on SP phenotype / ABCB1 activity [1]: efficiently reduced the ABCB1 activity | relation of SP and NSP [1]: about 50%
SMILES: CCCc1nc2ccccc2n1Cc1ccc(-c2ccc(C(=O)OC)cc2)cc1 [6b, Methyl 4′-((2-propyl-1H-benzo[d]imidazole-1-yl)methyl)-[1,1′-biphenyl]-4-carboxylate]
EC50 [2]: 1180 nM | metabolic activity of K562-R cells, combination with imatinib ([2]; compound 10 μM + imatinib 1 μM): 8–24% | ABCB1 protein expression [3]: none of the compounds abrogated the ABCB1 protein expression | phosphorylation of STAT5 ([4]; 4 μM + imatinib 1 μM, 6 h): marked repression of the STAT5 phosphorylation | viability at 10 µM [5]: 75 to 80% | metabolic activity of K562 cells [6]: ≥ 65%

SMILES: CC(=O)O[C@@]12CO[C@@H]1C[C@H](O)[C@@]1(C)C(=O)[C@H](O)C3=C(C)[C@@H](OC(=O)[C@H](O)[C@@H](NC(=O)OC(C)(C)C)c4ccccc4)C[C@@](O)([C@@H](OC(=O)c4ccccc4)[C@H]21)C3(C)C [DTX, docetaxel, reference compound]
metabolic activity of treated cells, DTX alone [7]: > 80% | metabolic activity of treated cells, DTX alone [8]: > 80%

SMILES: Cc1ccc(NC(=O)c2ccc(CN3CCN(C)CC3)cc2)cc1Nc1nccc(-c2cccnc2)n1 [Imatinib, imatinib, reference compound]
% TGI (tumor growth inhibition) ([9]; Day 5): 76% | % TGI (tumor growth inhibition) ([9]; Day 8): 54% | % TGI (tumor growth inhibition) ([9]; Day 12): 50% | % TGI (tumor growth inhibition) ([9]; Day 15): 66% | % TGI (tumor growth inhibition) ([9]; Day 19): 57% | % TGI (tumor growth inhibition) ([9]; Day 22): 57% | % TGI (tumor growth inhibition) ([9]; Day 26): 56% | % TGI (tumor growth inhibition) ([9]; Day 29): 55% | % TGI (tumor growth inhibition) ([9]; Day 33): 59% | Tumor Weight, individual animal ([9]; harvested on day 33, animals No. 1–7): 4.442 g and 0.194 g and 0.080 g and 0.082 g and 0.351 g and 3.076 g and 0.081 g | Tumor Weight, group mean ([9]; harvested on day 33, n = 7): 1.200 g | tolerability [10]: well tolerated | metabolic activity of K562-R cells, imatinib alone [11]: 73%

SMILES: CC(=O)O[C@H]1C(=O)[C@@]2(C)[C@H]([C@H](OC(=O)c3ccccc3)[C@]3(O)C[C@H](OC(=O)[C@H](O)[C@@H](NC(=O)c4ccccc4)c4ccccc4)C(C)=C1C3(C)C)[C@]1(OC(C)=O)CO[C@@H]1C[C@@H]2O [PTX, paclitaxel]
metabolic activity of treated cells, PTX alone [12]: > 80% | IC50 ([13]; Homo sapiens, PTX 0–300 nM, read-out: IC50 (PTX), PTX alone): 168 nM | metabolic activity of treated cells, PTX alone ([13]; PTX 10 nM, 72 h, compared to solvent control): > 80%

SMILES: COc1cc2c(cc1OC)CN(CCc1ccc(NC(=O)c3cccc4c(=O)c5cccc(OC)c5[nH]c34)cc1)CC2 [elacridar, reference compound]
chemosensitizing effect, concentration-dependent analysis [2]: comparable to telmi-ester (7b) | ABCB1 protein expression [3]: none of the compounds abrogated the ABCB1 protein expression | phosphorylation of STAT5 ([4]; 4 μM + imatinib 1 μM, 6 h): hardly triggered any change in the expression of pSTAT5 | phosphorylation of STAT5 ([4]; 4 μM alone, 72 h): did not influence the phosphorylation of STAT5 | metabolic activity of K562-R cells, compound alone [5]: did not affect the viability | metabolic activity of K562 cells [6]: did not affect the viability

SMILES: CCCCC1=NC2(CCCC2)C(=O)N1Cc1ccc(-c2ccccc2-c2nnn[nH]2)cc1 [irbesartan]
inhibition of ABCB1 [14]: only slightly

SMILES: C/C=C/C[C@@H](C)C(=O)[C@H]1C(=O)N[C@@H](C(C)C)C(=O)N(C)CC(=O)N(C)[C@@H](CC(C)C)C(=O)N[C@@H](C(C)C)C(=O)N(C)[C@@H](CC(C)C)C(=O)N[C@@H](C)C(=O)N[C@H](C)C(=O)N(C)[C@@H](CC(C)C)C(=O)N(C)[C@@H](CC(C)C)C(=O)N(C)[C@@H](C(C)C)C(=O)N1C [valspodar, reference compound]
chemosensitizing effect, concentration-dependent analysis [2]: sensitized the cells similarly to the derivatives 4b, 5c, 6b, 6c | metabolic activity of K562-R cells, compound alone [5]: did not affect the viability | metabolic activity of K562 cells [6]: did not affect the viability
